# Assay results: ChEMBL document CHEMBL1201862, “PubChem BioAssay data set” (2004)
# Activity calls are given as the source filed them.
# Test system: not listed separately
# Assay: NIH-3T3 fibroblast cytotoxicity, dose response, cytotoxicity control, cell-based, fluorescence, Alamar Blue, secondary assay (AID 2327);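 note: NIH-3T3 mouse fibroblasts cultured with fluconazole at 8 µg/mL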
# Assay type: functional
# Conditions: not given
row,SMILES,EC50
1,Clc1ccc(-c2c[n+](Cc3ccc(Br)cc3)c3n2CCCCC3)cc1,> 150 µM (inconclusive)

# Test system: not listed separately
# Assay: Luminescence Cell-Based Dose Response HTS to Identify Activators of Luciferase Translation or Activity in H4 […] Cells. [Related pubchem assays: 1829 (Project Summary), 1814 (Primary HTS)]
# Assay type: functional
# Conditions: not given
row,SMILES,EC50
1,COc1cccc(C=O)c1OCCCOc1cccc2cccnc12,16.4 µM (active)
2,COc1ccc(-c2cn(Cc3ccc(C(=O)c4ccccc4)cc3)nn2)cc1,90.4 µM (active)
3,Cc1c(C(=O)N2CCOCC2)sc2nc(-c3ccccc3)cn12,3.66 µM (active)

# Test system: Streptococcus sp. 'group A'
# Assay: growth inhibition of control SK(-) GAS strain, dose response, counter-screen for streptokinase expression inhibitor project, luminescence, kanamycin, BacTiterGlo, confirmation (AID 1900)
# Assay type: functional, organism-based
# Conditions: not given
row,SMILES,EC50
1,CC(C)=CCCC1(C)C=Cc2c(ccc3c2[nH]c2cc(O)c(C)cc23)O1 (stereo not given),2.31 µM (active)

# Test system: H4
# Assay: Luminescence Cell-Based Dose Response HTS to Identify Activators of 5'UTR Stem-Loop Driven Prion Protein mRNA Translation in H4 Neuroglioblastoma Cells. [Related pubchem assays: 1829 (Project Summary), 1814 (Primary HTS)]
# Assay type: functional
# Conditions: Homo sapiens
row,SMILES,EC50
1,COc1cccc(C=O)c1OCCCOc1cccc2cccnc12,28.1 µM (active)
2,COc1ccc(-c2cn(Cc3ccc(C(=O)c4ccccc4)cc3)nn2)cc1,21.2 µM (active)
3,Cc1c(C(=O)N2CCOCC2)sc2nc(-c3ccccc3)cn12,28.8 µM (active)

# Test system: not listed separately
# Assay: inhibitors of SNCA 5'UTR-driven reporter translation, confirmation, H4 neuroglioma cells, luminescence (AID 1988)
# Assay type: functional, cell-based
# Conditions: not given
row,SMILES,EC50
1,CC(C)COc1ccc2[nH]c3c(c2c1)CCCC3=O,10.6 µM (active)

# Test system: Streptococcus
# Assay: Group A Streptococcus viability loss, dose response, counter-screen for streptokinase expression inhibitor project, luminescence, BacTiterGlo (AID 1915);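 note: potency for reduction of bacterial viability or growth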
# Assay type: functional, organism-based
# Conditions: not given
row,SMILES,EC50
1,CC(C)=CCCC1(C)C=Cc2c(ccc3c2[nH]c2cc(O)c(C)cc23)O1 (stereo not given),6.72 µM (active)

# Test system: not listed separately
# Assay: Luminescence Cell-Based Dose Retest to Confirm Inhibitors of Cancer Stem Cells. [Related pubchem assays (depositor defined):AID2717, AID2721]
# Assay type: functional, Homo sapiens
# Conditions: Homo sapiens
row,SMILES,AC50
1,NC(=O)CC(NC(=O)Cc1cccc2ccccc12)c1ccc(NC2CCCCCCC2)c([N+](=O)[O-])c1 (stereo not given),14.1 µM (active)
2,Cn1c(N)c(C(=O)COC(=O)c2ccccc2C(=O)c2ccc(Cl)c([N+](=O)[O-])c2)c(=O)n(C)c1=O,4.25 µM (active)
3,COc1ccc(-n2nc3c(N4CCC(C(=O)NCCc5ccccc5C)CC4)nnc(C)c3c2C)cc1,4.03 µM (active)
4,CN1/C(=C\C(=O)Nc2ccc(Br)cc2)C(C)(C)c2ccccc21,5.09 µM (active)
5,COc1cc(OC)cc(-c2nnc(SCC(=O)N(Cc3ccccc3)C(C)(C)C)o2)c1,0.618 µM (active)
6,CC(O)CC(C(=O)NNc1ccccc1)C(=O)NNc1ccccc1 (stereo not given),0.489 µM (active)
7,O=C(Nc1cc(C(F)(F)F)ccc1N1CCCCC1)c1ccc(Br)o1,4.94 µM (active)
8,O=C(/C(=C\c1ccccc1)c1nc2ccccc2[nH]1)c1ccc(Cl)cc1,3.28 µM (active)
9,Cc1cc(C)c(OCCCCN2CCNCC2)c(C)c1,3.23 µM (active)
10,COc1ccc(-c2sc3ccccc3c2-c2ccc(O)cc2)cc1,3.35 µM (active)
11,CCN(CC)S(=O)(=O)c1cccc(C(=O)N/N=C/c2cccc(O)c2O)c1,8.97 µM (active)
12,COc1ccc(/C=N/NC(=O)c2cc(C34CC5CC(CC(C5)C3)C4)[nH]n2)cc1O,1.16 µM (active)
13,COc1ccc2cc(/C=N/NC(=O)c3ccc(CN(c4cccc(Cl)c4Cl)S(C)(=O)=O)cc3)c(Cl)nc2c1,< 0.16 µM (active)
14,CC(C)=CCCC1(C)C=Cc2c(ccc3c2[nH]c2cc(O)c(C)cc23)O1 (stereo not given),2.9 µM (active)

# Molecular target: Cytochrome P450 2C19 (Homo sapiens, UniProt P33261)
# Assay: Cytochrome panel assay with activity outcomes. Panel member name: p450-cyp2c19 Compounds with AC50 equal or less than 10 uM are considered active
# Assay type: functional
# Conditions: not given
# Chain of Cytochrome P450 2C19 (P33261 whole entry): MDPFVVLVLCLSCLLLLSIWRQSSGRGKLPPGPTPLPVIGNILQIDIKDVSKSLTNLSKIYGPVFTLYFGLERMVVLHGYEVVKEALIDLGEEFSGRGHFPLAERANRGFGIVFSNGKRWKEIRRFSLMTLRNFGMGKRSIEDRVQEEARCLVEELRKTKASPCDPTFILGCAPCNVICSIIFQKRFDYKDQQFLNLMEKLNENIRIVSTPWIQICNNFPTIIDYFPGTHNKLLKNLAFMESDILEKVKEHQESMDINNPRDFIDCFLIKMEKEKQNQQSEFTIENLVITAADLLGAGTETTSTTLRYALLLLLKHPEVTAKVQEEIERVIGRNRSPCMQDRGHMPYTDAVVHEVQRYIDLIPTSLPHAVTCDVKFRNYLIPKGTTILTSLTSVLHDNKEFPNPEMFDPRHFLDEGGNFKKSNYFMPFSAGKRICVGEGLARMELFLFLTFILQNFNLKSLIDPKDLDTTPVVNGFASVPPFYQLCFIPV
row,SMILES,AC50
1,CC(=O)NC1=NN(c2ccccc2)C(=O)C1,inconclusive

# Molecular target: T1, Replicative DNA helicase DnaB (Mycobacterium tuberculosis, UniProt P9WMR3)
# T1 sequence (P9WMR3 whole entry): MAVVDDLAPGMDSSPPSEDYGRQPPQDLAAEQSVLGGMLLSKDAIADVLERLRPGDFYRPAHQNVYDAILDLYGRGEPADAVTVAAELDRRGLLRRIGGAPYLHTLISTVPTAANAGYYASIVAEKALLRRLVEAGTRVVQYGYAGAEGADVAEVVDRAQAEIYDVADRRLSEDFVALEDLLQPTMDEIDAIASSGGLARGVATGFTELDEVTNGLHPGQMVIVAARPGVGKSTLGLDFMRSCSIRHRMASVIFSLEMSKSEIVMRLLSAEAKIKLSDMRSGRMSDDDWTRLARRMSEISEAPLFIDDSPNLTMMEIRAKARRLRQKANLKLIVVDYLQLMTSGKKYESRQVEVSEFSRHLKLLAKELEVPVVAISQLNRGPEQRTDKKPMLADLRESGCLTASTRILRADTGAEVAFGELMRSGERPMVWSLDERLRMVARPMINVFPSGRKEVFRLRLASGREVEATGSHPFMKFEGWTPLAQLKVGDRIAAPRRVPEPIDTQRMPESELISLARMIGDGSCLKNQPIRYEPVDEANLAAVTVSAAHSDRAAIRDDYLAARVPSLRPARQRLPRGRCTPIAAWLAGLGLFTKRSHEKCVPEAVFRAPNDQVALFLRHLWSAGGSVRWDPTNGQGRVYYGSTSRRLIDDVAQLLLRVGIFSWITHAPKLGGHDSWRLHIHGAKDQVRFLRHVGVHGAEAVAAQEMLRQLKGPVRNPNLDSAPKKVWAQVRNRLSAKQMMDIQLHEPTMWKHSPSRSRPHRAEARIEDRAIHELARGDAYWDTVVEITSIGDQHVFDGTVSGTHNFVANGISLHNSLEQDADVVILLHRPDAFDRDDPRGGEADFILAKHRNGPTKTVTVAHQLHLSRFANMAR
# Assay: DnaB intein splicing inhibitors, dose response, biochemical, cell-free fluorescence (AID 449749)
# Assay type: functional
# Conditions: not given
row,SMILES,AC50
1,COc1ccc(C(=O)/C(=C/c2cccs2)c2nc3ccccc3o2)cc1,> 380 µM (inactive)
2,COc1ccccc1Oc1cc(C#N)c(C#N)cc1-n1nnc2ccccc21,20.2 µM (active)
3,CC(=O)Oc1ccc2c(=O)oc(-c3ccccc3C)nc2c1,> 380 µM (inactive)
4,CC(=O)NC1=NN(c2ccccc2)C(=O)C1,33.5 µM (active)
5,CCCc1[nH][nH]c(=O)c1C(c1ccccc1)C(C#N)C#N (stereo not given),8.91 µM (active)
6,Cc1ccc(CNC(=O)c2ccc(N(C)S(=O)(=O)c3ccccc3)cc2)cc1,53.4 µM (active)
7,O=C(Oc1ccc2ccccc2c1)c1ccco1,18.3 µM (active)
8,Cc1cc(C)cc(S(=O)(=O)c2cnc3ccccc3n2)c1,20.2 µM (active)
9,CCOCC(=O)NCc1ccc2c(c1)cc(C)n2C,> 380 µM (inactive)
10,COC(=O)CN1C(=O)C2(C(C#N)=C(N)Oc3c2c(C)nn3-c2ccccc2)c2ccccc21 (stereo not given),7.38 µM (active)
11,CC1=NNC(=O)C1C(c1ccccc1)C1C(=O)NN=C1C (stereo not given),0.383 µM (active)
12,CC(=O)N(c1ccccc1)C(C)c1nc(C#N)c(C#N)nc1C (stereo not given),24.5 µM (active)
13,COc1ccc(N2CCN(C(=O)c3ccc(Oc4ccc(C(F)(F)F)cn4)cc3)CC2)cc1,121 µM (active)
14,COC(=O)Cc1n[nH]c2c1C1(CCSCC1)C(C#N)=C(N)O2,10.8 µM (active)
15,Oc1cccc(/C=N/c2cccc3ccccc23)c1O,3.04 µM (active)
16,COC(=O)Cc1cc(=O)n(-c2ccccc2)[nH]1,17.6 µM (active)
17,C/C(=N\NC(=O)Cc1cc(O)[nH]n1)c1cccc([N+](=O)[O-])c1,2.73 µM (active)
18,CO/C(O)=C1/C(C)=NC(=S)NC1c1ccc(OC(=O)c2ccco2)cc1 (stereo not given),33.1 µM (active)
19,COc1ccc(/C(=N/OC(C)=O)c2nccc3cc(OC)c(OC)cc23)cc1OC,> 380 µM (inactive)

# Molecular target: T2, Protein RecA (Mycobacterium tuberculosis, UniProt P9WHJ3)
# T2 sequence (P9WHJ3 whole entry): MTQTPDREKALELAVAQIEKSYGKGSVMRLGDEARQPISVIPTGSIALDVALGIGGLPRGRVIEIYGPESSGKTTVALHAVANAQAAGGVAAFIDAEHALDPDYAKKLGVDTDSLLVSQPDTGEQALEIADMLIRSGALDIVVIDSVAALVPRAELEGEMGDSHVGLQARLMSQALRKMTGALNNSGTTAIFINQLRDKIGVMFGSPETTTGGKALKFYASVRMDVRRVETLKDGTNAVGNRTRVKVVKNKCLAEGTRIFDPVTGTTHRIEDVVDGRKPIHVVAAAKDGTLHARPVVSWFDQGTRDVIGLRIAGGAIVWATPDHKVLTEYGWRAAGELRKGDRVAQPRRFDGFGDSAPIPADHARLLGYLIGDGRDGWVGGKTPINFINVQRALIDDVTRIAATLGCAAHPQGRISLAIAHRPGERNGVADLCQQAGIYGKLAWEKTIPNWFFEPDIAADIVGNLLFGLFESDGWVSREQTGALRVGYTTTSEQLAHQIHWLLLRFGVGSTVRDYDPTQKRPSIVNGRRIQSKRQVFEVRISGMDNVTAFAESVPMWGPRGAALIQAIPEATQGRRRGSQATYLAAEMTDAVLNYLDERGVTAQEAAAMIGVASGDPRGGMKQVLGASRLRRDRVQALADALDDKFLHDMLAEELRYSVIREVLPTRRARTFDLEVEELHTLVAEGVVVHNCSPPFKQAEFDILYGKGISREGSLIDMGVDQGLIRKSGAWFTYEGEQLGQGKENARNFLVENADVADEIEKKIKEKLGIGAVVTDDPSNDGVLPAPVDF
# Assay: Fluorescence Cell-Free Homogeneous Dose Retest to Identify Inhibitors of RecA-Intein Splicing Activity. [Related pubchem assays (depositor defined):AID2097, AID2223, AID489010, AID492950]
# Assay type: functional
# Conditions: not given
row,SMILES,EC50
1,COc1ccc(C(=O)/C(=C/c2cccs2)c2nc3ccccc3o2)cc1,> 380 µM (inactive)
2,COc1ccccc1Oc1cc(C#N)c(C#N)cc1-n1nnc2ccccc21,3.77 µM (active)
3,CC(=O)Oc1ccc2c(=O)oc(-c3ccccc3C)nc2c1,37.8 µM (active)
4,CC(=O)NC1=NN(c2ccccc2)C(=O)C1,5.21 µM (active)
5,CCCc1[nH][nH]c(=O)c1C(c1ccccc1)C(C#N)C#N (stereo not given),4.19 µM (active)
6,Cc1ccc(CNC(=O)c2ccc(N(C)S(=O)(=O)c3ccccc3)cc2)cc1,> 380 µM (inactive)
7,O=C(Oc1ccc2ccccc2c1)c1ccco1,13.9 µM (active)
8,Cc1cc(C)cc(S(=O)(=O)c2cnc3ccccc3n2)c1,4.26 µM (active)
9,CCOCC(=O)NCc1ccc2c(c1)cc(C)n2C,23.6 µM (active)
10,COC(=O)CN1C(=O)C2(C(C#N)=C(N)Oc3c2c(C)nn3-c2ccccc2)c2ccccc21 (stereo not given),3.38 µM (active)
11,CC1=NNC(=O)C1C(c1ccccc1)C1C(=O)NN=C1C (stereo not given),0.194 µM (active)
12,CC(=O)N(c1ccccc1)C(C)c1nc(C#N)c(C#N)nc1C (stereo not given),4.35 µM (active)
13,COc1ccc(N2CCN(C(=O)c3ccc(Oc4ccc(C(F)(F)F)cn4)cc3)CC2)cc1,> 380 µM (inactive)
14,COC(=O)Cc1n[nH]c2c1C1(CCSCC1)C(C#N)=C(N)O2,1.99 µM (active)
15,Oc1cccc(/C=N/c2cccc3ccccc23)c1O,10.1 µM (active)
16,COC(=O)Cc1cc(=O)n(-c2ccccc2)[nH]1,14 µM (active)
17,C/C(=N\NC(=O)Cc1cc(O)[nH]n1)c1cccc([N+](=O)[O-])c1,1.31 µM (active)
18,CO/C(O)=C1/C(C)=NC(=S)NC1c1ccc(OC(=O)c2ccco2)cc1 (stereo not given),14.4 µM (active)
19,COc1ccc(/C(=N/OC(C)=O)c2nccc3cc(OC)c(OC)cc23)cc1OC,36.3 µM (active)

# Test system: INS1
# Assay: beta cell apoptosis inhibitors, cytokine rescue, dose response, luminescence, retest (AID 449756);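 note: cell death triggered by IL-1 beta plus TNF-alpha plus IFN-gamma mixture; protective hits raise ATP signal compared with cytokine alone wells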
# Assay type: functional, cell-based
# Conditions: Rattus norvegicus
row,SMILES,AC50
1,COc1ccc(-c2cn(Cc3ccc(C(=O)c4ccccc4)cc3)nn2)cc1,9.37 µM (active)

# Molecular target: Cytochrome P450 2C9 (Homo sapiens, UniProt P11712)
# Conditions: not given
# Chain of Cytochrome P450 2C9 (P11712 whole entry): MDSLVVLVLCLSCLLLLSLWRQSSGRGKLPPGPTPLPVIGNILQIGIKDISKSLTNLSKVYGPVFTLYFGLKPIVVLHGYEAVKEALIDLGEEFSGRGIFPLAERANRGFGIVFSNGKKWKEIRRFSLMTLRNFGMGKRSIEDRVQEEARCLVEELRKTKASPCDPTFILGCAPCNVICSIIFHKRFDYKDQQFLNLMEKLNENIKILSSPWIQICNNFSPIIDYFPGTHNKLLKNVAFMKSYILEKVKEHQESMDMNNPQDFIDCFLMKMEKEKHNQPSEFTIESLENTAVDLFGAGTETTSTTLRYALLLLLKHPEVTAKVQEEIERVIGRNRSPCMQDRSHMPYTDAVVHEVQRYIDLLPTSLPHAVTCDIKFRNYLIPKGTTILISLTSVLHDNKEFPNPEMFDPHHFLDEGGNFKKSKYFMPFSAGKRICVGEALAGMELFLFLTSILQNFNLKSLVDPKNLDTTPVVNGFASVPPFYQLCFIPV
row,SMILES,AC50
1,O=C(Nc1cc(C(F)(F)F)ccc1N1CCCCC1)c1ccc(Br)o1,1.41 µM (inconclusive)
